These are literature values, as cited in patent US6235268A, “Antiplaque oral composition and method” (Colgate-Palmolive Company, priority 2000, dated 2001).

This series relates to rats. As to conditions: Merck Index, Eleventh Ed., 1989.

On to `COc1ccc(C(=O)c2ccccc2)c(O)c1` [2-hydroxy-4-methoxybenzophenone], for which the “LD-50 (oral/rats)” value is listed as 12.8 g/kg.
